Laboratory results published in patent publication US6699686B1, “Modified nuclear glucocorticoid receptor, fusion protein, and DNA fragments coding for said receptor and said fusion protein” (Association pour le Development de la Recherche en …, priority 1996, dated 2004).

How the values were obtained:
Cre-LBD[GR(I747/T)] [1] = molecular target: T1, Cre-LBD[GR(I747/T)] (Homo sapiens, UniProt P04150, I747T); experiment: PCR analysis of recombinase activity in RXRα+/−(LNL):Cre-GR(I747/T) line constitutively expressing the chimeric protein; assay type: cell-based; conditions: for recombinase activity: ligand concentration ranging from 10^−9 to 10^−6 M; for recombinase activity (191 bp PCR fragment of recombinant allele): ligand 10^−6 M, 72 hours, expression cassette integrated into the genome
T1 construct: the region containing the mutated LBD of HG1 [aa 500-777]; Cre recombinase aa 1-343 (bacteriophage P1); F region of the human estrogen receptor (aa 553-595); expressed in transfected cells
T1 sequence (P04150 500-777 I747T): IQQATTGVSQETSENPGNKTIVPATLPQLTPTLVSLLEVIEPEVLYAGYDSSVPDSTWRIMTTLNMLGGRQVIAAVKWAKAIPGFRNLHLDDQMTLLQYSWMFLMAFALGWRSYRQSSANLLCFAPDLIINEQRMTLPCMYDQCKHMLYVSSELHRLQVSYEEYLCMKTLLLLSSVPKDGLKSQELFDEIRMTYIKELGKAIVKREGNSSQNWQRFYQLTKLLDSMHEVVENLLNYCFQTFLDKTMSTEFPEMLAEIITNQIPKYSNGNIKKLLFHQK
Description: The resistant clones were obtained according to the procedure described by Metzger et al. (28).
(§1) The DNA amplifications were carried out using the “Polymerase Chain Reaction” (PCR) technique according to the protocol described by Chen and Evans (60). The primers used are: SB211 and PZ105, having respectively as nucleotide sequence 5′-[…]-3′ (SEQ ID NO: 10) and 5′-[…]-3′ (SEQ ID NO: 11). After denaturation for 8 min at 94° C., 2.5 units of Taq polymerase are added. The amplification is carried out by performing 35 cycles (30 sec. at 94° C., 30 sec. at 50° C.) followed by one cycle (30 sec. at 94° C., 30 sec. at 50° C., 5 min at 72° C.), the product of which is stored at 4° C.
(§2) The products of the reactions were separated on polyacrylamide (10%) or agarose (2.5%) gel. The DNA was visualized by UV followed by ethidium bromide staining, or by Southern blotting (42).
The amplified DNA was separated on acrylamide gel and stained with ethidium bromide. Lanes 1, 2, 3 and 4 contain respectively the PCR products produced with DNA extracted from wild-type (WT) F9 cells, RXRα^+/−(LNL), RXRα^+/−(L) cells and C2RXRα^+(L)/−(L) cells (73). Lane 8 contains a size marker (1 kb ladder; GibcoBRL).
The amplified DNA was separated on agarose gel and analyzed according to the Southern technique. The amplified fragments corresponding to the wild-type and recombinant alleles were detected by hybridization with the aid of the synthetic oligonucleotide (5′-[…]-3′) (SEQ ID NO: 12), radiolabeled at the 5′ end with T4 polynucleotide kinase. The signal was visualited and quantified with the aid of a “phosphoimager” (Fujix bas2000).
The recombinant allele was detected according to the procedure described in FIG. 8. The amplified DNA was separated on agarose gel and analyzed according to the Southern technique. The amplified fragments corresponding to the recombinant allele were detected by autoradiography following hybridization with the synthetic oligonucleotide 5′-[…]-3′ (SEQ ID NO: 13), (containing a loxP site) radiolabeled with Phosphorus^32 at the 5′ end by T4 polynucleotide kinase.
The recombinase activity was tested following a treatment of these cells with Dex (10^−6 M) for 72 hours.

Cre-LBD[GR(I747/T)] [2] = molecular target: T1, Cre-LBD[GR(I747/T)]; experiment: PCR test of excision between loxP sites after transient transfection of pCre-LBD[GR(I747/T)] in RXRα+/−(LNL) F9 cells; assay type: cell-based; conditions: ligand 10^−6 M, 72 hours, murine F9 RXRα+/−(LNL) cells
Description: [optionally cotransfected with 5 μg of the vector pRXRα^(LNL) for the HeLa cells] with the aid of an electroporator (Bio-Rad gene pulser), set at 200 V and 960 μF. The cells were then inoculated at 10^6 cells per 100 mm dish and treated, if necessary, with ligands.
as §1, §2
The products of the reaction were separated on acrylamide gel and stained with ethidium bromide.

C[C@]12CCC(=O)C=C1CC[C@@H]1[C@@H]2[C@@H](O)C[C@]2(C=O)[C@@H](C(=O)CO)CC[C@@H]12 [Aldosterone, aldosterone]
recombinase activity (Cre-LBD[GR(I747/T)] [1]): No recombinase activity

C[C@]12C[C@H](O)[C@H]3[C@@H](CCC4=CC(=O)CC[C@@]43C)[C@@H]1CC[C@@H]2C(=O)CO [Corticosterone, corticosterone]
recombinase activity (Cre-LBD[GR(I747/T)] [1]): No recombinase activity

C[C@]12CCC(=O)C=C1CC[C@@H]1[C@@H]2[C@@H](O)C[C@@]2(C)[C@H]1CC[C@]2(O)C(=O)CO [Cortisol, cortisol]
excision of sequences between loxP sites (191 bp PCR fragment of recombinant allele) (Cre-LBD[GR(I747/T)] [2]): no fragment of this size is observed | recombinase activity (191 bp PCR fragment of recombinant allele) (Cre-LBD[GR(I747/T)] [1]): inactive | recombinase activity (Cre-LBD[GR(I747/T)] [1]): No recombinase activity

C[C@@H]1C[C@H]2[C@@H]3CCC4=CC(=O)C=C[C@]4(C)[C@@]3(F)[C@@H](O)C[C@]2(C)[C@@]1(O)C(=O)CO [Dexamethasone, dexamethasone]
recombinase activity (191 bp PCR fragment of recombinant allele) (Cre-LBD[GR(I747/T)] [1]; listed as Dex): active
